The species entered for one assay is Homo sapiens. The assay can be described thus: Inhibition of human recombinant His-MBP-tagged Nrf2/recombinant His-tagged MafG heterodimer interaction with 5' FAM-labeled ARE at 0.2 uM preincubated for 5 mins with Nrf2 under shaking condition followed by MafG addition for 5 mins further incubated with ARE and measured after 10 mins by fluorescence polarization assay. The settings on record: time 20.0 min. For orientation: Polarisation of emitted light reports the rotation of a fluorescent probe.

In assay [1] the test system is A549. Description: Downregulation of NQO2 mRNA level in human A549 cells at 50 uM incubated for 72 hrs by qPCR assay. In kind it is functional, cell-based. (In general: Real-time PCR tracks product formation cycle by cycle.)
For assay [2], the system named is A549. Description: Downregulation of HMOX1 mRNA level in human A549 cells at 50 uM incubated for 72 hrs by qPCR assay. In kind it is functional, cell-based.
Assay [3] deals with A549. Description: Antiproliferative activity against human A549 cells assessed as cell death at 1.563 uM incubated for 72 hrs by MTT assay relative to control. In kind it is functional. (In general: Tetrazolium dyes change colour on reduction, which living cells bring about.)
Assay [4] has as its system A549. The assay can be described thus: Antiproliferative activity against human A549 cells assessed as cell death at 100 uM incubated for 72 hrs by MTT assay relative to control. Type of assay: functional.
Assay [5] deals with A549. Description: Synergistic antiproliferative activity against human A549 cells assessed as cell death at 1.563 uM incubated for 72 hrs in presence of 6 uM cisplatin by MTT assay (reference value: 46%). In kind it is functional.
Assay [6] deals with A549. Description: Synergistic antiproliferative activity against human A549 cells assessed as cell death at 6.25 uM incubated for 72 hrs in presence of 6 uM cisplatin by MTT assay (reference value: 46%). In kind it is functional.
For assay [7], the system named is A549. Description: Synergistic antiproliferative activity against human A549 cells assessed as cell death at 50 uM incubated for 72 hrs in presence of 6 uM cisplatin by MTT assay (reference value: 46%). Type of assay: functional.
Assay [8] concerns A549. Description: Synergistic antiproliferative activity against human A549 cells assessed as cell death at 6.25 uM incubated for 72 hrs in presence of 12 uM cisplatin by MTT assay (reference value: 66%). Type of assay: functional.
The test system of assay [9] is A549. Description: Synergistic antiproliferative activity against human A549 cells assessed as cell death at 12.5 uM incubated for 72 hrs in presence of 12 uM cisplatin by MTT assay (reference value: 66%). In kind it is functional.
The test system of assay [10] is A549. Description: Synergistic antiproliferative activity against human A549 cells assessed as cell death at 25 uM incubated for 72 hrs in presence of 12 uM cisplatin by MTT assay (reference value: 66%). In kind it is functional.
The test system of assay [11] is A549. The assay can be described thus: Synergistic antiproliferative activity against human A549 cells assessed as combination index at 3.125 uM incubated for 72 hrs in presence of 6 uM cisplatin by Chou-Talalay method. In kind it is functional.
Assay [12] relates to A549. The assay can be described thus: Synergistic antiproliferative activity against human A549 cells assessed as combination index at 6.25 uM incubated for 72 hrs in presence of 6 uM cisplatin by Chou-Talalay method. Type of assay: functional.
Assay [13] concerns A549. The assay can be described thus: Synergistic antiproliferative activity against human A549 cells assessed as combination index at 50 uM incubated for 72 hrs in presence of 6 uM cisplatin by Chou-Talalay method. In kind it is functional.
Assay [14] has as its system A549. The assay can be described thus: Synergistic antiproliferative activity against human A549 cells assessed as combination index at 3.125 uM incubated for 72 hrs in presence of 12 uM cisplatin by Chou-Talalay method. In kind it is functional.
The test system of assay [15] is A549. The assay can be described thus: Synergistic antiproliferative activity against human A549 cells assessed as combination index at 25 uM incubated for 72 hrs in presence of 12 uM cisplatin by Chou-Talalay method. In kind it is functional.
For assay [16], the system named is A549. The assay can be described thus: Synergistic antiproliferative activity against human A549 cells assessed as reduction in cell growth at 50 uM incubated for 3 days in presence of 6 uM cisplatin and measured every 2 hrs by IncuCyte live-cell imaging assay. Type of assay: functional, cell-based. The settings on record: time 3.0 day.

Activity calls are given as the source filed them. The calls are words filed in the database; no cut-off is given here. Positions of bridges follow the written chain, without caps; N, C: chain ends. Non-standard residues stand in square brackets, D forms with d. Residues, ends and D or L forms follow the SMILES beside them. R5 = C=CCCC[C@@](C)(N)C(=O)O

Consider `CC[C@H](C)[C@H](NC(C)=O)C(=O)N[C@H](C(=O)N[C@@H](CCC(=O)O)C(=O)N[C@@H](CC(C)C)C(=O)N[C@@H](CCC(=O)O)C(=O)N[C@]1(C)CCC/C=C\CCC[C@](C)(C(=O)N[C@@H](CC(C)C)C(=O)N[C@@H](CCCCN)C(=O)N[C@@H](CC(=O)O)C(=O)N[C@@H](CCC(=O)O)C(=O)N[C@@H](CCCCN)C(=O)N[C@@H](CCC(=O)O)C(N)=O)NC(=O)[C@H](CC(=O)O)NC(=O)[C@H](CC(C)C)NC(=O)[C@H](CC(=O)O)NC1=O)C(C)C` (Ac-IVELE[R5]DLD[R5]LKDEKE-NH2; staple (Z) 6-10), for which the inhibition entry in the assay filed under Homo sapiens is “Active”. The outcome in the assay with A549 [1], with A549 [2] and in the assay on A549 [16] was Active. In addition, the Activity in the assay with A549 [3] came to 4%; in the assay on A549 [4], 37%; with A549 [5], 50%; in the assay on A549 [6] it was 59%; in the assay with A549 [7], 74%; in the assay with A549 [8], 79%. For the same molecule, the Activity in the assay with A549 [9] turned out to be 81%; in the assay on A549 [10], 87%. In addition, the CI is given as 0.84 in the assay with A549 [11]; 0.67 in the assay with A549 [12]; 0.42 in the assay on A549 [13]; 0.82 with A549 [14]; 0.35 in the assay with A549 [15].

The values are drawn from ChEMBL document CHEMBL5338753, “Stapled Peptides as Direct Inhibitors of Nrf2-sMAF Transcription Factors” (J Med Chem, 2023).
